Data as given in PubChem BioAssay (NCI).
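96-well plates; 48 h exposure; 5 concentrations. Endpoints by linear interpolation between flanking doses. Not reached: highest tested concentration assigned. At the TGI there is no net growth.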

Experiments:
Assay in all cases: inhibition of tumour cell growth, NCI panel, 48 h
NCI/ADR-RES ovarian = tested on: NCI/ADR-RES ovarian
KM12 colon = tested on: KM12 colon
CCRF-CEM leukemia = tested on: CCRF-CEM leukemia
SK-OV-3 ovarian = tested on: SK-OV-3 ovarian
MDA-MB-231 breast = tested on: MDA-MB-231 breast
SW-620 colon = tested on: SW-620 colon
LOX IMVI melanoma = tested on: LOX IMVI melanoma
UACC-257 melanoma = tested on: UACC-257 melanoma
SK-MEL-5 melanoma = tested on: SK-MEL-5 melanoma
SF-268 CNS = tested on: SF-268 CNS
ACHN renal = tested on: ACHN renal
TK-10 renal = tested on: TK-10 renal
SK-MEL-28 melanoma = tested on: SK-MEL-28 melanoma
RXF 393 renal = tested on: RXF 393 renal
NCI-H226 lung = tested on: NCI-H226 lung
SNB-19 CNS = tested on: SNB-19 CNS
DU-145 prostate = tested on: DU-145 prostate
HOP-62 NSCLC = tested on: HOP-62 NSCLC
HCC-2998 colon = tested on: HCC-2998 colon
IGROV1 ovarian = tested on: IGROV1 ovarian
OVCAR-8 ovarian = tested on: OVCAR-8 ovarian
CAKI-1 renal = tested on: CAKI-1 renal
HT29 colon = tested on: HT29 colon
EKVX NSCLC = tested on: EKVX NSCLC
HCT-116 colon = tested on: HCT-116 colon
K-562 leukemia = tested on: K-562 leukemia
OVCAR-4 ovarian = tested on: OVCAR-4 ovarian
SK-MEL-2 melanoma = tested on: SK-MEL-2 melanoma
MALME-3M melanoma = tested on: MALME-3M melanoma
MDA-MB-435 = tested on: MDA-MB-435
U251 CNS = tested on: U251 CNS
OVCAR-5 ovarian = tested on: OVCAR-5 ovarian
NCI-H460 lung = tested on: NCI-H460 lung
HS 578T breast = tested on: HS 578T breast
UACC-62 melanoma = tested on: UACC-62 melanoma
UO-31 renal = tested on: UO-31 renal
MCF7 breast = tested on: MCF7 breast
M14 melanoma = tested on: M14 melanoma
OVCAR-3 ovarian = tested on: OVCAR-3 ovarian
PC-3 prostate = tested on: PC-3 prostate
BT-549 breast = tested on: BT-549 breast
HOP-92 NSCLC = tested on: HOP-92 NSCLC
NCI-H23 lung = tested on: NCI-H23 lung
SN12C renal = tested on: SN12C renal
T-47D breast = tested on: T-47D breast
SF-539 CNS = tested on: SF-539 CNS
HL-60(TB) leukemia = tested on: HL-60(TB) leukemia
NCI-H522 lung = tested on: NCI-H522 lung
HCT-15 colon = tested on: HCT-15 colon
SNB-75 CNS = tested on: SNB-75 CNS
COLO 205 colon = tested on: COLO 205 colon
MDA-N = tested on: MDA-N
SF-295 CNS = tested on: SF-295 CNS
786-0 renal = tested on: 786-0 renal
A549 NSCLC = tested on: A549 NSCLC
MOLT-4 leukemia = tested on: MOLT-4 leukemia
RPMI-8226 leukemia = tested on: RPMI-8226 leukemia
A498 renal = tested on: A498 renal
SR leukemia = tested on: SR leukemia

Work on `Cc1ccc(C(=O)C(Cl)C(Cl)c2ccc(C)cc2)cc1` (configuration not stated) yielded a TGI (NCI/ADR-RES ovarian) of 6.15 µM, a TGI (KM12 colon) of 13.9 µM and a TGI (CCRF-CEM leukemia) of 4.28 µM. The TGI (SK-OV-3 ovarian) was 30.7 µM, the TGI (MDA-MB-231 breast) was 16.1 µM and the TGI (SW-620 colon) was 6.32 µM. For the same molecule, the TGI (LOX IMVI melanoma) was 3.78 µM, the TGI (UACC-257 melanoma) was 4.48 µM and the TGI (SK-MEL-5 melanoma) was 6.68 µM. The TGI (SF-268 CNS) was 21.2 µM, the TGI (ACHN renal) was 3.13 µM and the TGI (TK-10 renal) was 8.13 µM. For the same molecule, the TGI (SK-MEL-28 melanoma) was 8.68 µM, the TGI (RXF 393 renal) was 23.4 µM and the TGI (NCI-H226 lung) was 11.4 µM. It also gave a TGI (SNB-19 CNS) of 23.3 µM, a TGI (DU-145 prostate) of 15.3 µM and a TGI (HOP-62 NSCLC) of 45.4 µM. For the same molecule, the TGI (HCC-2998 colon) was 3.92 µM, the TGI (IGROV1 ovarian) was 6.34 µM and the TGI (OVCAR-8 ovarian) was 7.7 µM. For the same molecule, the TGI (CAKI-1 renal) was 5.53 µM, the TGI (HT29 colon) was 4.31 µM and the TGI (EKVX NSCLC) was 19.5 µM. For the same molecule, the TGI (HCT-116 colon) was 4 µM, the TGI (K-562 leukemia) was 7.15 µM and the TGI (OVCAR-4 ovarian) was 5.04 µM. The TGI (SK-MEL-2 melanoma) was 36.2 µM, the TGI (MALME-3M melanoma) was 32.1 µM and the TGI (MDA-MB-435) was 10.8 µM. For the same molecule, the TGI (U251 CNS) was 12.4 µM, the TGI (OVCAR-5 ovarian) was 33 µM and the TGI (NCI-H460 lung) was 22.3 µM. It also gave a TGI (HS 578T breast) of 76.3 µM, a TGI (UACC-62 melanoma) of 10.9 µM and a TGI (UO-31 renal) of 3.73 µM. It also gave a TGI (MCF7 breast) of 18.6 µM, a TGI (M14 melanoma) of 35.5 µM and a TGI (OVCAR-3 ovarian) of 11.2 µM. The TGI (PC-3 prostate) was 18.4 µM, the TGI (BT-549 breast) was 9.2 µM and the TGI (HOP-92 NSCLC) was 5.24 µM. For the same molecule, the TGI (NCI-H23 lung) was 23.9 µM, the TGI (SN12C renal) was 3.88 µM and the TGI (T-47D breast) was 4.86 µM. For the same molecule, the TGI (SF-539 CNS) was 6.38 µM, the TGI (HL-60(TB) leukemia) was 10 µM and the TGI (NCI-H522 lung) was 10.7 µM. For the same molecule, the TGI (HCT-15 colon) was 3.73 µM, the TGI (SNB-75 CNS) was 23 µM and the TGI (COLO 205 colon) was 4.1 µM. For the same molecule, the TGI (MDA-N) was 6.18 µM, the TGI (SF-295 CNS) was 23.7 µM and the TGI (786-0 renal) was 4.61 µM. It also gave a TGI (A549 NSCLC) greater than 91.8 µM, a TGI (MOLT-4 leukemia) of 6.67 µM and a TGI (RPMI-8226 leukemia) of 7.25 µM. It also gave a TGI (A498 renal) of 30 µM and a TGI (SR leukemia) of 6.68 µM.

Molecule `COc1c2ccccc2c(OC)c2nc(C)ccc12` has a TGI (NCI/ADR-RES ovarian) greater than 100 µM, a TGI (KM12 colon) greater than 100 µM and a TGI (CCRF-CEM leukemia) of 71.6 µM. It also gave a TGI (SK-OV-3 ovarian) greater than 100 µM, a TGI (MDA-MB-231 breast) greater than 100 µM and a TGI (SW-620 colon) greater than 100 µM. For the same molecule, the TGI (LOX IMVI melanoma) was 56.1 µM, the TGI (UACC-257 melanoma) was greater than 100 µM and the TGI (SK-MEL-5 melanoma) was greater than 100 µM. The TGI (SF-268 CNS) was greater than 100 µM, the TGI (ACHN renal) was greater than 100 µM and the TGI (TK-10 renal) was greater than 100 µM. The TGI (SK-MEL-28 melanoma) was greater than 100 µM, the TGI (RXF 393 renal) was greater than 100 µM and the TGI (NCI-H226 lung) was greater than 100 µM. For the same molecule, the TGI (SNB-19 CNS) was greater than 100 µM, the TGI (DU-145 prostate) was greater than 100 µM and the TGI (HOP-62 NSCLC) was greater than 100 µM. The TGI (HCC-2998 colon) was greater than 100 µM, the TGI (IGROV1 ovarian) was greater than 100 µM and the TGI (OVCAR-8 ovarian) was greater than 100 µM. The TGI (CAKI-1 renal) was greater than 100 µM, the TGI (HT29 colon) was greater than 100 µM and the TGI (EKVX NSCLC) was greater than 100 µM. For the same molecule, the TGI (HCT-116 colon) was greater than 100 µM, the TGI (K-562 leukemia) was greater than 78.6 µM and the TGI (OVCAR-4 ovarian) was greater than 100 µM. It also gave a TGI (SK-MEL-2 melanoma) greater than 100 µM, a TGI (MALME-3M melanoma) greater than 100 µM and a TGI (MDA-MB-435) greater than 100 µM. The TGI (U251 CNS) was greater than 46.4 µM, the TGI (OVCAR-5 ovarian) was greater than 100 µM and the TGI (NCI-H460 lung) was greater than 100 µM. It also gave a TGI (HS 578T breast) greater than 100 µM, a TGI (UACC-62 melanoma) greater than 100 µM and a TGI (UO-31 renal) greater than 100 µM. It also gave a TGI (MCF7 breast) greater than 100 µM, a TGI (M14 melanoma) greater than 100 µM and a TGI (OVCAR-3 ovarian) greater than 100 µM. It also gave a TGI (PC-3 prostate) greater than 100 µM, a TGI (BT-549 breast) greater than 100 µM and a TGI (HOP-92 NSCLC) greater than 100 µM. The TGI (NCI-H23 lung) was greater than 100 µM, the TGI (SN12C renal) was greater than 100 µM and the TGI (T-47D breast) was greater than 100 µM. For the same molecule, the TGI (SF-539 CNS) was greater than 100 µM, the TGI (HL-60(TB) leukemia) was 61.8 µM and the TGI (NCI-H522 lung) was greater than 100 µM. For the same molecule, the TGI (HCT-15 colon) was greater than 100 µM, the TGI (SNB-75 CNS) was greater than 100 µM and the TGI (COLO 205 colon) was greater than 96.7 µM. For the same molecule, the TGI (MDA-N) was greater than 100 µM, the TGI (SF-295 CNS) was greater than 100 µM and the TGI (786-0 renal) was greater than 100 µM. For the same molecule, the TGI (A549 NSCLC) was greater than 100 µM, the TGI (MOLT-4 leukemia) was 99.7 µM and the TGI (RPMI-8226 leukemia) was greater than 100 µM. The TGI (A498 renal) was greater than 100 µM and the TGI (SR leukemia) was greater than 79.5 µM.

`Cc1occc1C(=S)Nc1ccc(Cl)c(/C=N/OC(C)C)c1` showed a TGI (NCI/ADR-RES ovarian) greater than 58 µM, a TGI (KM12 colon) of 53.6 µM and a TGI (CCRF-CEM leukemia) of 44.4 µM. The TGI (SK-OV-3 ovarian) was greater than 56.7 µM, the TGI (MDA-MB-231 breast) was 32.6 µM and the TGI (SW-620 colon) was 52.3 µM. The TGI (LOX IMVI melanoma) was 31.1 µM, the TGI (UACC-257 melanoma) was 47.6 µM and the TGI (SK-MEL-5 melanoma) was 41.4 µM. For the same molecule, the TGI (SF-268 CNS) was greater than 62.2 µM, the TGI (ACHN renal) was 51 µM and the TGI (TK-10 renal) was 55.8 µM. It also gave a TGI (SK-MEL-28 melanoma) greater than 56.4 µM, a TGI (RXF 393 renal) of 56.4 µM and a TGI (NCI-H226 lung) of 37.6 µM. It also gave a TGI (SNB-19 CNS) greater than 67.4 µM, a TGI (DU-145 prostate) greater than 54.2 µM and a TGI (HOP-62 NSCLC) greater than 60.9 µM. It also gave a TGI (HCC-2998 colon) greater than 59.6 µM, a TGI (IGROV1 ovarian) greater than 57.2 µM and a TGI (OVCAR-8 ovarian) greater than 55.4 µM. For the same molecule, the TGI (CAKI-1 renal) was 40.9 µM, the TGI (HT29 colon) was 45 µM and the TGI (EKVX NSCLC) was 59 µM. The TGI (HCT-116 colon) was greater than 51.7 µM, the TGI (K-562 leukemia) was greater than 100 µM and the TGI (OVCAR-4 ovarian) was greater than 59.7 µM. For the same molecule, the TGI (SK-MEL-2 melanoma) was 43.8 µM, the TGI (MALME-3M melanoma) was greater than 57.4 µM and the TGI (MDA-MB-435) was 31 µM. The TGI (U251 CNS) was greater than 53.7 µM, the TGI (OVCAR-5 ovarian) was 49.4 µM and the TGI (NCI-H460 lung) was greater than 57.5 µM. The TGI (HS 578T breast) was 67.9 µM, the TGI (UACC-62 melanoma) was 29.2 µM and the TGI (UO-31 renal) was 42.8 µM. The TGI (MCF7 breast) was greater than 51.6 µM, the TGI (M14 melanoma) was 57.9 µM and the TGI (OVCAR-3 ovarian) was 30.9 µM. It also gave a TGI (PC-3 prostate) of 47.3 µM, a TGI (BT-549 breast) of 36.5 µM and a TGI (HOP-92 NSCLC) of 37.4 µM. The TGI (NCI-H23 lung) was 52.3 µM, the TGI (SN12C renal) was 35.1 µM and the TGI (T-47D breast) was greater than 41.6 µM. It also gave a TGI (SF-539 CNS) of 32.9 µM, a TGI (HL-60(TB) leukemia) of 69.8 µM and a TGI (NCI-H522 lung) of 28.5 µM. For the same molecule, the TGI (HCT-15 colon) was 42.8 µM, the TGI (SNB-75 CNS) was 72.7 µM and the TGI (COLO 205 colon) was 37 µM. The TGI (MDA-N) was 45 µM, the TGI (SF-295 CNS) was 41.9 µM and the TGI (786-0 renal) was 43.8 µM. The TGI (A549 NSCLC) was 54.2 µM, the TGI (MOLT-4 leukemia) was greater than 57.6 µM and the TGI (RPMI-8226 leukemia) was greater than 67.6 µM. The TGI (A498 renal) was 49.9 µM and the TGI (SR leukemia) was greater than 59.9 µM.
